According to patent US6632829B2, “Sulfonamides and derivatives thereof that modulate the activity of endothelin” (Texas Biotechnology Corp., priority 1996, dated 2003):

What was measured:
[1] = target: T1, human ETA receptors (Homo sapiens, UniProt P25101); experiment: Endothelin binding inhibition, Binding Test #1: competition with 125I-ET-1 for ETA receptors on TE 671 cell membranes; conditions: incubation at 24° C. (values marked †)
T1 construct: endogenous in cells; host or cells: TE 671 cells (ATCC HTB 139), membrane preparation
T1 sequence (P25101 21-427): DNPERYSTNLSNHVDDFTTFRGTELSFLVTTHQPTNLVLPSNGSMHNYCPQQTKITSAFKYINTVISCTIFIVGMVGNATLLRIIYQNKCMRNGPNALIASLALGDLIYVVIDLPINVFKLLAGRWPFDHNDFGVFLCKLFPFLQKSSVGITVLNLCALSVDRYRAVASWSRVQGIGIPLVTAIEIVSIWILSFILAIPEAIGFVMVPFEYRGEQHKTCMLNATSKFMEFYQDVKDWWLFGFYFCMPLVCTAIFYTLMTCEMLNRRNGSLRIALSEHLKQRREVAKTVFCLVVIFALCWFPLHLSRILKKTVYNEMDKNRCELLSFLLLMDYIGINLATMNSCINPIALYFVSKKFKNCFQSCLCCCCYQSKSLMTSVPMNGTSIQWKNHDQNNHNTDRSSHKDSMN

[2] = Oral half-life and peak plasma levels; assay type: in vivo
Description: As used herein, bioavailability refers to the rate and extent of absorption. Methods for determining bioavailability are well known to those of skill in the art. For example, bioavailability of any of the compounds described herein can be determined empirically by administration of the compound to an animal, followed by taking blood samples over time and measuring the blood concentration of the compound. In vivo half life (t1/2) is defined as the time it takes for the concentration of the compound in the blood to be reduced by one-half. Estimations of the area under the curve for intravenous administration can be used to estimate the area under the curve for oral administration, ylelding bioavailability data. See, e.g., Milo Gibal (1991) Biopharmaceutics and Pharmacology, 4th edition (Lea and Sediger).
Table 2 lists oral half-life, bioavailability, and in vivo activity of selected exemplary compounds. The in vivo activity was measured in a pulmonary hypertension model and is a measure of the activity of the compounds at selected dosages.

[3] = test system: Pulmonary Hypertension model; experiment: Pulmonary Hypertension model; assay type: in vivo, rat; set-up: key: ++: effective at 5 mg/kg; −: no effect at 5 mg/kg; +: effective at 15 mg/kg
Protocol: As used herein, efficacy refers to the maximal effect that can be produced by a compound. Efficacy can be determined by methods known to those of skill in the art. For example, it can be determined by the properties of the compound and its receptor-effector system and is reflected in the plateau of the concentration-effect curve. In vivo efficacy refers to efficacy which is determined in an animal model. For example, in vivo efficacy of the compounds described herein can be determined by hypoxia-induced pulmonary hypertension in rat. See, e.g., DiCarlo et al. (1995) Am. J. Physiol. 269:[…]-[…]. Table 2 lists oral half-life, bioavailability, and in vivo activity of selected exemplary compounds. The in vivo activity was measured in a pulmonary hypertension model and is a measure of the activity of the compounds at selected dosages.

## Cc1cc(C)c(NC(=O)c2sccc2S(=O)(=O)Nc2onc(C)c2Cl)c(C)c1O [N-(4-chloro-3-methyl-5-isoxazolyl)-2-(3-hydroxy-2,4,6-trimethylphenylaminocarbonyl)thiophene-3-sulfonamide]
[1]
  IC50: 1.71 nM
[2]; oral
  POt½ in Rat: 7 h
[2]; rat, in vivo
  Peak Plasma Levels: 5.6 µg/mL
[3]
  in vivo Efficacy: ++
